Measurements: patent US20230312478A1, “HERBICIDAL COMPOUNDS” (SYNGENTA CROP PROTECTION AG, priority 2020, published 2023)

Assays:
Assay type in all cases: in vivo
Settings in all cases: 250 g/ha, evaluated visually after 13 days, scale 0-5
[1] = test system: Setaria faberi (SETFA); assay: Herbicidal efficacy, application pre-emergence; set-up: key: 5 = total damage to plant; 0 = no damage to plant
Procedure: (§1) Seeds of a variety of test species [Ipomoea hederacea (IPOHE); Zea mays (ZEAMX); Echinochloa crus-galli (ECHCG); Setaria faberi (SETFA); Abutilon theophrasti (ABUTH); Amaranthus retroflexus (AMARE)] were sown in standard sterilised soil in pots. After cultivation for one day (pre-emergence) or after 8 days cultivation (post-emergence) under controlled conditions in a glasshouse (at 24/16° C., day/night; 14 hours light; 65 % humidity), the plants were sprayed with an aqueous spray solution derived from the formulation of the technical active ingredient in acetone / water (50:50) solution containing 0.5% Tween 20 (polyoxyethelyene sorbitan monolaurate, CAS RN 9005-64-5), subsequently diluted in water, and sprayed to give the stated application rate.
(§2) The test plants were then grown under controlled conditions in a glasshouse (at 24/16° C., day/night; 14 hours light; 65 % humidity) and watered twice daily.
(§3) After 13 days for pre- and post-emergence, the test was evaluated visually for percentage phytotoxicity to the plant (where 5 = total damage to plant; 0 = no damage to plant).

[2] = test system: Ipomoea hederacea (IPOHE); assay: Herbicidal efficacy, application pre-emergence; set-up: key: 5 = total damage to plant; 0 = no damage to plant
Procedure: as §1, §2, §3

[3] = test system: Echinochloa crus-galli (ECHCG); assay: Herbicidal efficacy, application pre-emergence; set-up: key: 5 = total damage to plant; 0 = no damage to plant
Procedure: as §1, §2, §3

[4] = test system: Abutilon theophrasti (ABUTH); assay: Herbicidal efficacy, application pre-emergence; set-up: key: 5 = total damage to plant; 0 = no damage to plant
Procedure: as §1, §2, §3

[5] = test system: Amaranthus retroflexus (AMARE); assay: Herbicidal efficacy, application pre-emergence; set-up: key: 5 = total damage to plant; 0 = no damage to plant
Procedure: as §1, §2, §3

[6] = test system: Setaria faberi (SETFA); assay: Herbicidal efficacy, application post-emergence
Procedure: as §1, §2, §3

[7] = test system: Zea mays (ZEAMX); assay: Herbicidal efficacy, application post-emergence
Procedure: as §1, §2, §3

[8] = test system: Ipomoea hederacea (IPOHE); assay: Herbicidal efficacy, application post-emergence
Procedure: as §1, §2, §3

[9] = test system: Echinochloa crus-galli (ECHCG); assay: Herbicidal efficacy, application post-emergence
Procedure: as §1, §2, §3

[10] = test system: Amaranthus retroflexus (AMARE); assay: Herbicidal efficacy, application post-emergence
Procedure: as §1, §2, §3

[11] = test system: Abutilon theophrasti (ABUTH); assay: Herbicidal efficacy, application post-emergence; set-up: key: 5 = total damage to plant; 0 = no damage to plant
Procedure: as §1, §2, §3

[12] = test system: Zea mays (ZEAMX); assay: Herbicidal efficacy, application pre-emergence
Procedure: as §1, §2, §3

Row | Compound | phytotoxicity to the plant, SETFA [1] | phytotoxicity to the plant, IPOHE [2] | phytotoxicity to the plant, ECHCG [3] | phytotoxicity to the plant, ABUTH [4] | phytotoxicity to the plant, AMARE [5] | phytotoxicity to the plant, SETFA [6] | phytotoxicity to the plant, ZEAMX [7] | phytotoxicity to the plant, IPOHE [8] | phytotoxicity to the plant, ECHCG [9] | phytotoxicity to the plant, AMARE [10] | phytotoxicity to the plant, ABUTH [11] | phytotoxicity to the plant, ZEAMX [12]
1 | Cc1c(Br)c(C2CN(C)C(=O)C2C(=O)Nc2ccc(F)nc2F)nn1C(F)F (stereo not drawn) [Compound 83, 4-[4-bromo-1-(difluoromethyl)-5-methyl-pyrazol-3-yl]-N-(2,6-difluoro-3-pyridyl)-1-methyl-2-oxo-pyrrolidine-3-carboxamide] | 5 | 0 | 5 | 0 | 0 | 3 | 4 | 1 | 4 | 1 | 1 | 1
2 | Cc1cc(C2CN(C)C(=S)C2C(=O)Nc2ccc(F)nc2F)nn1C(F)F (stereo not drawn) [Compound 85, 4-[1-(difluoromethyl)-5-methyl-pyrazol-3-yl]-N-(2,6-difluoro-3-pyridyl)-1-methyl-2-thioxo-pyrrolidine-3-carboxamide] | 4 | 0 | 4 | 0 | 0 | 2 | 1 | 1 | 4 | 1 | 0 | 1
3 | CCc1cc(C2CN(C)C(=S)C2C(=O)Nc2ccc(F)nc2F)nn1C(F)F (stereo not drawn) [Compound 86, 4-[1-(difluoromethyl)-5-ethyl-pyrazol-3-yl]-N-(2,6-difluoro-3-pyridyl)-1-methyl-2-thioxo-pyrrolidine-3-carboxamide] | 5 | 0 | 5 | 1 | 2 | 4 | 3 | 1 | 4 | 1 | 3 | 1
